# Measured values published in US20110237497A1, “COMPOSITIONS OF A V-ATPASE INHIBITOR IN COMBINATION WITH A GLUCOCORTICOID RECEPTOR LIGAND AND METHODS OF USE” (priority 2009, published 2011).
# Test system: GR
# Experiment: GR transactivation, MMTV (pHHLuc) luciferase reporter in AD293 cells
# Type: cell-based
# Details: Dexamethasone 1 nM, 10 nM, 100 nM and 1 μM with or without Concanamycin A 1 nM, FIG. 2
# Method: (§1) AD293 cells in 24 wells plate were transfected with 0.1 ng GR, 100 ng pHHLuc reporter together with 10 ng Renilla control plasmids in each well, then induced by EtOH (vehicle control), Dexamethasone (1 nM, 10 nM, 100 nM and 1 μM), with or without Bafilomycin A1 (100 nM). Dual-Luciferase values were measured by Promega standard manual.
# as §1, with “Concanamycin A (1” for “Bafilomycin A1 (100”
# FIG. 8 is a graph showing a summary of V-ATPase inhibitors in enhancing GR-Dex activity on MMTV (pHHLuc) reporter in AD293 cells. AD293 cells in 24 wells plate were transfected with 0.1 ng GR, 100 ng pHHLuc reporter together with 10 ng Renilla control plasmids in each well, then induce by EtOH (vehicle control), Dexamethasone (10 nM), with different V-ATPase inhibitors (Bafilomycin A1 100 nM; Concanamycin A 1 nM; Lobatamide A 100 nM) or vehicle control. Dual-Luciferase values were measured by Promega standard manual.
compound,measurement,value
"C/C=C/C1OC(O)(C(C)C(O)C(C)C2OC(=O)/C(OC)=C/C(C)=C/C(C)C(O)C(CC)C(O)C(C)C/C(C)=C/C=C/C2OC)CC(OC2CC(O)C(OC(N)=O)C(C)O2)C1C (stereo not shown) [Concanamycin A, 6-(2-(4-((4E,6E,14E,16Z)-11-ethyl-10,12-dihydroxy-3,17-dimethoxy-7,9,13,15-tetramethyl-18-oxooxacyclooctadeca-4,6,14,16-tetraen-2-yl)-3-hydroxypentan-2-yl)-2-hydroxy-5-methyl-6-((E)-prop-1-enyl)tetrahydro-2H-pyran-4-yloxy)-4-hydroxy-2-methyltetrahydro-2H-pyran-3-yl carbamate]",GR-dex dose-response of induction on MMTV (pHHLuc) reporter (GR transactivation),synergizes with Dex
